US20040076974A1, “Liver necrosis predictive genes” (priority 2002, published 2004)
Values joined by “and” are separate entries in the source; they are usually repeats but may differ in a detail not shown here. Equal values may be shown once. Read-outs that look alike come from different tables or passages of the source.

How the values were obtained:
Sprague Dawley rats = conditions: for Liver Necrosis / Score (histopathology liver necrosis severity score): rat, intraperitoneal; for Liver Necrosis: 72 hours after treatment; for Score (histopathology liver necrosis severity score): 72 hours, 1 = not remarkable, 2 and higher increasing severity
Summary of the method: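 Toxicity calls (necrosis present or absent at 72 h) and histopathology scores were correlated with tissue gene expression from Crl:CD Sprague Dawley rats. Animals, usually 3 treated with compound by i.p. route and 3 given vehicle, were killed at 6, 24 or 72 h and tissues frozen immediately in liquid nitrogen.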

[1] = tested on: toxicologically relevant rat genes (rat CT array); conditions: 24 h

ClC(Cl)(Cl)Cl [carbon tetrachloride]
Liver Toxicity Necrosis Classification (Sprague Dawley rats; 72 h, dose 250): yes | Liver Toxicity Necrosis Classification (Sprague Dawley rats; 72 h, dose 1000): yes | Liver Toxicity Necrosis Classification (Sprague Dawley rats; compound-dose group at 72 h, CCL4 1000, DMN 20, LPS 8): yes | Liver Toxicity Necrosis Classification (Sprague Dawley rats; compound-dose group at 72 h, dose 250): yes | Liver Toxicity Necrosis Classification (Sprague Dawley rats; compound-dose group at 72 h, dose 1000): yes | Liver Toxicity Necrosis Classification (Sprague Dawley rats; compound-dosegroup at 72 h, dose 250): yes | Liver Toxicity Necrosis Classification (Sprague Dawley rats; compound-dosegroup at 72 h, dose 1000): yes | Liver Necrosis (Sprague Dawley rats; dose 0.25 ml/kg): Yes | Score (histopathology liver necrosis severity score) (Sprague Dawley rats; dose 0.25 ml/kg): 3 | Liver Necrosis (Sprague Dawley rats; dose 1 ml/kg): Yes | Score (histopathology liver necrosis severity score) (Sprague Dawley rats; dose 1 ml/kg): 6 | 14-3-3 zeta expression (treatment/control) ([1]; dose 250, listed as CCL4): 1.66 and 1.924 and 1.756 | 17-beta hydroxysteroid dehydrogenase, type 2 expression (treatment/control) ([1]; dose 250, listed as CCL4): 1.054 and 0.5508 and 0.756 | Cathepsin L, sequence 2 expression (treatment/control) ([1]; dose 250, listed as CCL4): 1.932 and 2.846 and 1.646 | Dynamin-1 (D100) expression (treatment/control) ([1]; dose 250, listed as CCL4): 0.7967 and 0.581 and 0.7391 | Gadd45 expression (treatment/control) ([1]; dose 250, listed as CCL4): 2.248 and 2.519 and 1.891 | Gamma-actin, cytoplasmic expression (treatment/control) ([1]; dose 250, listed as CCL4): 1.21 and 1.729 and 1.683 | Insulin-like growth factor binding protein 1 expression (treatment/control) ([1]; dose 250, listed as CCL4): 1.423 and 1.69 and 1.605 | L-gulono-gamma-lactone oxidase expression (treatment/control) ([1]; dose 250, listed as CCL4): 0.5457 and 0.345 and 0.5416 | Matrin F/G expression (treatment/control) ([1]; dose 250, listed as CCL4): 0.8257 and 0.6948 and 0.7947 | Ornithine decarboxylase expression (treatment/control) ([1]; dose 250, listed as CCL4): 1.229 and 1.514 and 1.453 | PAR interacting protein expression (treatment/control) ([1]; dose 250, listed as CCL4): 1.251 and 1.611 and 1.178 | Phase-1 RCT-33 expression (treatment/control) ([1]; dose 250, listed as CCL4): 0.7 | Phase-1 RCT-36 expression (treatment/control) ([1]; dose 250, listed as CCL4): 0.9183 and 0.9601 | Phase-1 RCT-38 expression (treatment/control) ([1]; dose 250, listed as CCL4): 0.6811 and 0.8069 | Phase-1 RCT-39 expression (treatment/control) ([1]; dose 250, listed as CCL4): 1.553 | Phase-1 RCT-40 expression (treatment/control) ([1]; dose 250, listed as CCL4): 0.8329 | Phase-1 RCT-48 expression (treatment/control) ([1]; dose 250, listed as CCL4): 0.8905 | Phase-1 RCT-49 expression (treatment/control) ([1]; dose 250, listed as CCL4): 1.595 and 1.935 and 1.969 | Phase-1 RCT-50 expression (treatment/control) ([1]; dose 250, listed as CCL4): 1.199 and 1.292 | Phase-1 RCT-68 expression (treatment/control) ([1]; dose 250, listed as CCL4): 1.615 | Phase-1 RCT-78 expression (treatment/control) ([1]; dose 250, listed as CCL4): 0.6214 | Phase-1 RCT-83 expression (treatment/control) ([1]; dose 250, listed as CCL4): 0.8265 and 0.5965 and 0.5296 | Phase-1 RCT-89 expression (treatment/control) ([1]; dose 250, listed as CCL4): 0.7738 and 0.5787 and 0.6881 | Phase-1 RCT-92 expression (treatment/control) ([1]; dose 250, listed as CCL4): 0.6412 and 0.598 and 0.6063 | Phase-1 RCT-128 expression (treatment/control) ([1]; dose 250, listed as CCL4): 0.7659 and 0.5352 and 0.6882 | Phase-1 RCT-144 expression (treatment/control) ([1]; dose 250, listed as CCL4): 1.636 and 2.462 and 1.54 | Phase-1 RCT-145 expression (treatment/control) ([1]; dose 250, listed as CCL4): 1.894 | Phase-1 RCT-180 expression (treatment/control) ([1]; dose 250, listed as CCL4): 1.103 | Phase-1 RCT-182 expression (treatment/control) ([1]; dose 250, listed as CCL4): 0.5663 and 0.6692 | Phase-1 RCT-213 expression (treatment/control) ([1]; dose 250, listed as CCL4): 1.658 and 1.455 | Phase-1 RCT-256 expression (treatment/control) ([1]; dose 250, listed as CCL4): 0.6795 and 0.8008 | Phase-1 RCT-264 expression (treatment/control) ([1]; dose 250, listed as CCL4): 0.5556 and 0.3693 and 0.5559 | Phase-1 RCT-288 expression (treatment/control) ([1]; dose 250, listed as CCL4): 0.6979 and 0.5773 and 0.6386 | Phase-1 RCT-291 expression (treatment/control) ([1]; dose 250, listed as CCL4): 0.7629 and 0.7701 | Phase-1 RCT-295 expression (treatment/control) ([1]; dose 250, listed as CCL4): 1.942 and 1.579 | Ribosomal protein S17 expression (treatment/control) ([1]; dose 250, listed as CCL4): 1.826 and 2.664 and 2.129 | Senescence marker protein-30 expression (treatment/control) ([1]; dose 250, listed as CCL4): 0.7864 and 0.5048 and 0.8299 | Zinc finger protein expression (treatment/control) ([1]; dose 250, listed as CCL4): 1.078 and 1.318 and 1.451 | 14-3-3 zeta expression (treatment/control) ([1]; dose 1000): 2.165 | 17-beta hydroxysteroid dehydrogenase, type 2 expression (treatment/control) ([1]; dose 1000): 0.5477 | Cathepsin L, sequence 2 expression (treatment/control) ([1]; dose 1000): 4.767 | Dynamin-1 (D100) expression (treatment/control) ([1]; dose 1000): 0.4373 | Gadd45 expression (treatment/control) ([1]; dose 1000): 2.03 | Gamma-actin, cytoplasmic expression (treatment/control) ([1]; dose 1000): 2.857 | Insulin-like growth factor binding protein 1 expression (treatment/control) ([1]; dose 1000): 2.908 | L-gulono-gamma-lactone oxidase expression (treatment/control) ([1]; dose 1000): 0.2874 | Matrin F/G expression (treatment/control) ([1]; dose 1000): 0.5748 | Ornithine decarboxylase expression (treatment/control) ([1]; dose 1000): 2.004 | PAR interacting protein expression (treatment/control) ([1]; dose 1000): 1.736 | Phase-1 RCT-33 expression (treatment/control) ([1]; dose 1000): 0.4824 | Phase-1 RCT-36 expression (treatment/control) ([1]; dose 1000): 0.6382 | Phase-1 RCT-38 expression (treatment/control) ([1]; dose 1000): 0.5871 | Phase-1 RCT-39 expression (treatment/control) ([1]; dose 1000): 1.821 | Phase-1 RCT-40 expression (treatment/control) ([1]; dose 1000): 0.7596 | Phase-1 RCT-48 expression (treatment/control) ([1]; dose 1000): 0.9803 | Phase-1 RCT-49 expression (treatment/control) ([1]; dose 1000): 2.488 | Phase-1 RCT-50 expression (treatment/control) ([1]; dose 1000): 1.792 | Phase-1 RCT-68 expression (treatment/control) ([1]; dose 1000): 1.656 | Phase-1 RCT-78 expression (treatment/control) ([1]; dose 1000): 0.5578 | Phase-1 RCT-83 expression (treatment/control) ([1]; dose 1000): 0.3247 | Phase-1 RCT-89 expression (treatment/control) ([1]; dose 1000): 0.4606 | Phase-1 RCT-92 expression (treatment/control) ([1]; dose 1000): 0.3009 | Phase-1 RCT-128 expression (treatment/control) ([1]; dose 1000): 0.3095 | Phase-1 RCT-144 expression (treatment/control) ([1]; dose 1000): 2.627 | Phase-1 RCT-145 expression (treatment/control) ([1]; dose 1000): 1.753 | Phase-1 RCT-180 expression (treatment/control) ([1]; dose 1000): 1.291 | Phase-1 RCT-182 expression (treatment/control) ([1]; dose 1000): 0.3598 | Phase-1 RCT-207 expression (treatment/control) ([1]; dose 1000): 2.086 | Phase-1 RCT-213 expression (treatment/control) ([1]; dose 1000): 1.988 | Phase-1 RCT-256 expression (treatment/control) ([1]; dose 1000): 0.6382 | Phase-1 RCT-264 expression (treatment/control) ([1]; dose 1000): 0.2087 | Phase-1 RCT-288 expression (treatment/control) ([1]; dose 1000): 0.4221 | Phase-1 RCT-291 expression (treatment/control) ([1]; dose 1000): 0.5561 | Phase-1 RCT-295 expression (treatment/control) ([1]; dose 1000): 2.11 | Phase-1 RCT-296 expression (treatment/control) ([1]; dose 1000): 0.2278 | Ribosomal protein S17 expression (treatment/control) ([1]; dose 1000): 3.461 | Senescence marker protein-30 expression (treatment/control) ([1]; dose 1000): 0.2057 | Zinc finger protein expression (treatment/control) ([1]; dose 1000): 1.697
